Data as given in patent US9783510B2, “Small molecule mediated transcriptional induction of E-cadherin” (Vanderbilt University, priority 2014, dated 2017).

tested on: E-cadherin expression in SW620 cells; assay: E-cadherin expression, in-cell Western (ICW), SW620 cells; format: cell-based; conditions: Homo sapiens, SW-620, 24 h, change in expression level of E-cadherin in response to 10 μM compound, 24 hours, SW620 cells
Experimental: SW620 and H520 cells (5×10^4/100 μL) were seeded in a 96-well plate prior to treatment. Cells were treated with 10 μM concentration of synthesized compound in quadruplicate for 24 hours in RPMI 1640 supplemented medium and 100 μg/mL penicillin-streptomycin. The cells were then fixed with 100% methanol for 20 minutes at 4° C. The wells were then washed 2 times with PBS, permeabilized in 2% bovine serum albumin (BSA) and 0.2% TritonX-100 in PBS for 30 minutes at room temperature with gentle agitation, and blocked in LI-COR blocking buffer for 30 minutes at room temperature with gentle agitation. The cells were then incubated with the following primary antibodies: anti-E-Cadherin (1:500) and anti-α-Tubulin (1:1000) diluted in blocking buffer (1:1 dilution in PBS) for 2 hours at room temperature with gentle agitation. The cells were washed 4 times in PBS-T for 5 minutes each, and then incubated with the following secondary antibodies conjugated to a fluorescent entity: IRDye 800-conjugated goat anti-rabbit IgG (1:1000) and IRDye-700-conjugated goat anti-mouse IgG (1:2000) in blocking buffer (1:1 dilution in PBS) with gentle agitation for 1 h at room temperature. The cells were washed 4 times in PBS-T for 5 minutes each followed by a single wash with PBS. All liquid was removed from the wells and the plates were visualized and analyzed on the Odyssey IR imaging system (LI-COR Biosciences).
The assay was further optimized in the following manner. The cells were washed 2 times with PBS, fixed in 100% methanol at room temperature for 15 minutes, and again washed 2 times with PBS. The cells were then incubated with the following primary antibodies: anti-E-Cadherin (1:200) and anti-α-Tubulin (1:2000) diluted in ice cold 2% bovine serum albumin (BSA) and 0.2% TritonX-100 in PBS for 1 hour at room temperature with gentle agitation. The cells were washed 2 times in PBS and then incubated with the following secondary antibodies conjugated to a fluorescent entity: Licor 800-conjugated goat anti-rabbit IgG (1:2000) and IRDye-700-conjugated goat anti-mouse IgG (1:2000) in ice cold 2% BSA and 0.2% TritonX-100 in PBS with gentle agitation for 45 minutes at room temperature. The wells were washed 2 times in PBS, dried, and analyzed as previously mentioned.
N-Acetamidoalkyl-5-arylisoxazole-3-carboxamide analogs were synthesized as described above. Changes in expression level of E-cadherin in response to 10 μM compound in SW620 cells was determined in a cell-based functional assay as described above, and the data are shown in Table III. The compound number corresponds to the compound numbers used in Table II.
EC50 of inducement of E-cadherin expression in SW620 cells was determined in a cell-based functional assay as described above, and the data are shown in Table V. The compound number corresponds to the compound numbers used in Table IV.

Row | SMILES | fold induction at 10 µM
1 | O=C(CCCC[C@@H]1SC[C@@H]2NC(=O)N[C@@H]21)NCCCNC(=O)c1cc(-c2ccccc2)on1 (stereo in doubt) [Compound 19, N-(3-(5-((3aS,4S,6aR)-2-oxohexahydro-1H-thieno[3,4-d]imidazol-4-yl)pentanamido)propyl)-5-phenylisoxazole-3-carboxamide] | 1.25
2 | O=C(NCCNC(=O)c1cc(-c2ccccc2)on1)c1cccnc1 [Compound 3, N-(2-(nicotinamido)ethyl)-5-phenylisoxazole-3-carboxamide] | 3.05
3 | N[C@@H](Cc1c[nH]c2ccccc12)C(=O)NCCNC(=O)c1cc(-c2ccccc2)on1 [Compound 6, (S)—N-(2-(2-amino-3-(1H-indol-3-yl)propanamido)ethyl)-5-phenylisoxazole-3-carboxamide] | 0.92
4 | O=C(Cc1cccc(O)c1)NCCNC(=O)c1cc(-c2ccccc2)on1 [Compound 7, N-(2-(2-(3-hydroxyphenyl)acetamido)ethyl)-5-phenylisoxazole-3-carboxamide] | 2.92
5 | O=C(NCCNC(=O)c1cc(-c2ccccc2)on1)c1cccc(O)c1 [Compound 8, N-(2-(3-hydroxybenzamido)ethyl)-5-phenylisoxazole-3-carboxamide] | 2.44
6 | O=C(NCCNC(=O)c1cc(-c2ccccc2)on1)c1ccc(O)c(O)c1 [Compound 9, N-(2-(3,4-dihydroxybenzamido)ethyl)-5-phenylisoxazole-3-carboxamide] | 1.89
7 | O=C(NCCNC(=O)c1cc(-c2ccccc2)on1)c1cc(O)cc(Br)c1 [Compound 10, N-(2-(3-bromo-5-hydroxybenzamido)ethyl)-5-phenylisoxazole-3-carboxamide] | 2.35
8 | Cc1scnc1C(=O)NCCNC(=O)c1cc(-c2ccccc2)on1 [Compound 11, N-(2-(5-methylthiazole-4-carboxamido)ethyl)-5-phenylisoxazole-3-carboxamide] | 2.08
9 | O=C(NCCNC(=O)c1cnccc1O)c1cc(-c2ccccc2)on1 [Compound 12, N-(2-(4-hydroxynicotinamido)ethyl)-5-phenylisoxazole-3-carboxamide] | 3.25
10 | Nc1cccc(C(=O)NCCCNC(=O)c2cc(-c3ccccc3)on2)c1 [Compound 15, N-(3-(3-aminobenzamido)propyl)-5-phenylisoxazole-3-carboxamide] | 3.94
11 | Nc1ccc(C(=O)NCCCNC(=O)c2cc(-c3ccccc3)on2)cc1O [Compound 16, N-(3-(4-amino-3-hydroxybenzamido)propyl)-5-phenylisoxazole-3-carboxamide] | 3.72
12 | O=C(CCCC[C@@H]1SC[C@@H]2NC(=O)N[C@@H]21)Nc1ccc(C(=O)NCCCNC(=O)c2cc(-c3ccccc3)on2)cc1 [Compound 17, N-(3-(4-(5-((3aS,4S,6aR)-2-oxohexahydro-1H-thieno[3,4-d]imidazol-4-yl)pentanamido)benzamido)propyl)-5-phenylisoxazole-3-carboxamide] | 1.04
13 | O=C(CCCC[C@@H]1SC[C@@H]2NC(=O)N[C@@H]21)Nc1cccc(C(=O)NCCCNC(=O)c2cc(-c3ccccc3)on2)c1 [Compound 18, N-(3-(3-(5-((3aS,4S,6aR)-2-oxohexahydro-1H-thieno[3,4-d]imidazol-4-yl)pentanamido)benzamido)propyl)-5-phenylisoxazole-3-carboxamide] | 1.05
14 | N[C@@H](Cc1ccccc1)C(=O)NCCNC(=O)c1cc(-c2ccccc2)on1 [Compound 23, (S)—N-(2-(2-amino-3-phenylpropanamido)ethyl)-5-phenylisoxazole-3-carboxamide] | 0.84
15 | Cn1ccc(C(=O)NCCCNC(=O)c2cc(-c3ccccc3)on2)n1 [Compound 28, N-(3-(1-methyl-1H-pyrazole-3-carboxamido)propyl)-5-phenylisoxazole-3-carboxamide] | 3.42
16 | O=C(NCCCNC(=O)c1cc(-c2ccccc2)on1)c1cocn1 [Compound 29, N-(3-(oxazole-4-carboxamido)propyl)-5-phenylisoxazole-3-carboxamide] | 3.35

Row | SMILES | fold induction at 10 µM
17 | O=C(NCCCNC(=O)c1cnccc1O)c1cc(-c2ccccc2)on1 [Compound 30, N-(3-(4-hydroxynicotinamido)propyl)-5-phenylisoxazole-3-carboxamide] | 2.69
18 | O=C(NCCCNC(=O)c1cc(-c2ccccc2)on1)c1ccncc1 [Compound 31, N-(3-(isonicotinamido)propyl)-5-phenylisoxazole-3-carboxamide] | 3.51
19 | N[C@@H](Cc1c[nH]c2ccccc12)C(=O)NCCCNC(=O)c1cc(-c2ccccc2)on1 [Compound 32, (S)—N-(3-(2-amino-3-(1H-indol-3-yl)propanamido)propyl)-5-phenylisoxazole-3-carboxamide] | 2.7
20 | O=C(NCCCNC(=O)c1cc(-c2ccccc2)on1)c1cscn1 [Compound 33, 5-phenyl-N-(3-(thiazole-4-carboxamido)propyl)isoxazole-3-carboxamide] | 3.7
21 | O=C(NCCCNC(=O)c1ncco1)c1cc(-c2ccccc2)on1 [Compound 34, N-(3-(oxazole-2-carboxamido)propyl)-5-phenylisoxazole-3-carboxamide] | 2.77
22 | O=C(NCCCNC(=O)c1nccs1)c1cc(-c2ccccc2)on1 [Compound 35, 5-phenyl-N-(3-(thiazole-2-carboxamido)propyl)isoxazole-3-carboxamide] | 2.61
23 | O=C(NCCCNC(=O)c1cc(-c2ccccc2)on1)c1ccc(O)c(O)c1 [Compound 36, N-(3-(3,4-dihydroxybenzamido)propyl)-5-phenylisoxazole-3-carboxamide] | 2.69
24 | O=C(NCCCNC(=O)c1cc(-c2cccs2)on1)c1ccnc(O)c1 [Compound 37, N-(3-(2-hydroxyisonicotinamido)propyl)-5-(thiophen-2-yl)isoxazole-3-carboxamide] | 1.83
25 | Cc1ccc(C(=O)NCCCNC(=O)c2cc(-c3ccccc3)on2)o1 [Compound 38, N-(3-(5-methylfuran-2-carboxamido)propyl)-5-phenylisoxazole-3-carboxamide] | 3.37
26 | O=C(NCCCNC(=O)c1cc(-c2cccs2)on1)c1cccnc1 [Compound 39, N-(3-(nicotinamido)propyl)-5-(thiophen-2-yl)isoxazole-3-carboxamide] | 4.56
27 | O=C(NCCCNC(=O)c1cc(-c2cccs2)on1)c1cc(Cl)ccn1 [Compound 40, N-(3-(4-chloropicolinamido)propyl)-5-(thiophen-2-yl)isoxazole-3-carboxamide] | 1.95
28 | O=C(NCCCNC(=O)c1cc(-c2cccs2)on1)c1ccc(O)cn1 [Compound 41, N-(3-(5-hydroxypicolinamido)propyl)-5-(thiophen-2-yl)isoxazole-3-carboxamide] | 2.77
29 | O=C(NCCCNC(=O)c1cncnc1O)c1cc(-c2cccs2)on1 [Compound 42, N-(3-(4-hydroxypyrimidine-5-carboxamido)propyl)-5-(thiophen-2-yl)isoxazole-3-carboxamide] | 0.95
30 | COc1ccc(C(=O)NCCCNC(=O)c2cc(-c3cccs3)on2)c(OC)n1 [Compound 43, N-(3-(2,6-dimethoxynicotinamido)propyl)-5-(thiophen-2-yl)isoxazole-3-carboxamide] | 1.45
31 | O=C(NCCCNC(=O)c1ncccc1F)c1cc(-c2cccs2)on1 [Compound 44, N-(3-(3-fluoropicolinamido)propyl)-5-(thiophen-2-yl)isoxazole-3-carboxamide] | 3.36
32 | O=C(NCCCNC(=O)c1cccc(Br)n1)c1cc(-c2cccs2)on1 [Compound 45, N-(3-(6-bromopicolinamido)propyl)-5-(thiophen-2-yl)isoxazole-3-carboxamide] | 3.35

same assay, conditions: Homo sapiens, SW-620; inducement of E-cadherin expression in SW620 cells

Row | SMILES | EC50 [µM]
33 | O=C(NCCNC(=O)c1cc(-c2ccccc2)on1)c1cccnc1 [Compound 3, N-(2-(nicotinamido)ethyl)-5-phenylisoxazole-3-carboxamide] | 7.1
34 | O=C(NCCCNC(=O)c1cc(-c2cccs2)on1)c1cccnc1 [Compound 39, N-(3-(nicotinamido)propyl)-5-(thiophen-2-yl)isoxazole-3-carboxamide] | 5.02

same assay, conditions: change in expression level of E-cadherin in response to 10 μM compound, 24 hours, SW620 cells

Row | SMILES | fold change SW620 ICW [fold]
35 | Nc1ccc(C(=O)NCCCNC(=O)c2cc(-c3ccccc3)on2)cn1 [Compound 14, N-(3-(6-aminonicotinamido)propyl)-5-phenylisoxazole-3-carboxamide] | 0.70
